Assay results as given in patent US7491729B2, “3-Substituted 3,4-dihydro-thieno[2,3-d]pyrimidin-4-one derivatives, production and use thereof” (Abbott GmbH & Co. KG, priority 2002, dated 2009).

Columns and labels:
5-HT1A receptors = target: T1, 5-HT1A receptors (Homo sapiens, UniProt P08908); experiment: Receptor binding studies, displacement of (3H)-8-OH-DPAT on membranes of HEK293 cells expressing 5-HT1A receptors; conditions: 0.2 nM (3H)-8-OH-DPAT, 22° C.
T1 construct: expressed in transfected cells; host or cells: HEK293
T1 sequence (P08908 1-422): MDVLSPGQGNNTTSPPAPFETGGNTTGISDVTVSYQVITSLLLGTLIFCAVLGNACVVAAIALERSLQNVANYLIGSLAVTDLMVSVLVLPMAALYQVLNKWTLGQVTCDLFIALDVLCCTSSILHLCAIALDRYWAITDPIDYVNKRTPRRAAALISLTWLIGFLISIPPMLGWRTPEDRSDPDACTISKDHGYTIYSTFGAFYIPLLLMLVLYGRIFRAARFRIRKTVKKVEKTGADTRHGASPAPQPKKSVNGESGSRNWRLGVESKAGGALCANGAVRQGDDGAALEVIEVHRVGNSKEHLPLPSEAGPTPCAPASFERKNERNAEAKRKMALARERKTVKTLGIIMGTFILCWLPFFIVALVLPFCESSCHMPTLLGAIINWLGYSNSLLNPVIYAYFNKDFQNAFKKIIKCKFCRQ
Protocol: (§1) HEK293 cells which expressed 5-HT1A or 5-HT1B receptors were cultivated in RPMI 1640 (Life Technologies, Eggenstein, Germany) comprising 10% fetal calf serum. All the culture media were supplemented with 2 mM L-glutamine and 400 mg/l Geneticin G418 (Life Technologies). The cells were grown in a moist atmosphere with 6% CO2 at 37° C. and detached with a buffer comprising 0.0004% EDTA, 0.02% EGTA, 2.68 mM KCl, 1.47 mM KH2PO4, 6.46 mM Na2HPO4 and 136.9 mM NaCl (pH 7.4). The harvested cells were washed once with cold phosphate-buffered Dulbecco's saline solution (PBS), centrifuged (200×g; 10 minutes) and adjusted to a cell density of 10^8 cells per cryovial. After renewed centrifugation, the pellets were resuspended in 1 ml of ice-cold dissolving buffer (5 mM Tris/HCl (pH 7.4), 10% glycerol) and incubated at 4° C. for 30 minutes. The suspension was then centrifuged at 900×g for 10 minutes, the supernatants were removed, and the pellets were stored in liquid nitrogen until used.
(§2) Initially, the affinities of the radio ligands ((^3H)-8-OH-DPAT for 5-HT1A receptors; or (^3H)-5-CT for 5-HT1B receptors) were calculated from saturation plots where triplicate determinations of the specific and nonspecific binding were carried out for each test concentration. Each sample was composed of 50 μg of cellular proteins of the particular membrane preparation, the radio ligand with or without competing compound (5-HT) in a total volume of 0.5 ml. A buffer consisting of 50 mM Tris/HCl (pH 7.4) and 5 mM CaCl2 was used. Incubation was at 22° C. for 9 minutes.
(§3) For Ki determinations, the test compounds were titrated three times in displacement experiments against a fixed concentration of radio ligand ((0.2 nM (^3H)-8-OH-DPAT; or 0.2 nM (^3H)-5-CT). The other test conditions corresponded to those described for the saturation experiments. The total and the nonspecific binding (10 μM 5-HT as competitor of 5-HT1A and 100 μM for 5-HT1B) was determined for each experimental series.
(§4) The incubation for binding and displacement was terminated by filtering and washing the samples on glass fiber filters (GF/B) using a Skatron 7200 cell harvester (Zinsser, Frankfurt, Germany). The sample filters were transferred into scintillation vials comprising 5 ml of scintillator (Ultima Gold XR) and agitated for 1 hour, and then measured in a liquid scintillation counter. Saturation and competition plots were calculated with the aid of a computer program based on LIGAND (Mundson, P J and Reodbard, D; Anal. Biochem. 107, 220 (1980)).

5-HT1B receptors = target: T2, 5-HT1B receptors (Homo sapiens, UniProt P28222); experiment: Receptor binding studies, displacement of (3H)-5-CT on membranes of HEK293 cells expressing 5-HT1B receptors; conditions: 0.2 nM (3H)-5-CT, 22° C.
T2 construct: expressed in transfected cells; host or cells: HEK293
T2 sequence (P28222 whole entry): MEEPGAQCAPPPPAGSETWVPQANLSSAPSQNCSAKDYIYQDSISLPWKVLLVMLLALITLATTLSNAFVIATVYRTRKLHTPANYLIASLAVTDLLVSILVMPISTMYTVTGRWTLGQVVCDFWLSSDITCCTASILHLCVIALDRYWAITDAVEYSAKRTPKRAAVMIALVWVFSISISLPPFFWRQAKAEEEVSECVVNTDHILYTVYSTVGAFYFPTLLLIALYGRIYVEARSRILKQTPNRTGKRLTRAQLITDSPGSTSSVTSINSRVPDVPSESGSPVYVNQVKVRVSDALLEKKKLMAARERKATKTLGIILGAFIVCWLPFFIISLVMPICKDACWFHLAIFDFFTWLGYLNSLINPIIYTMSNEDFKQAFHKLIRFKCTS
Protocol: as §1, §2, §3, §4

[1] = tested on: serotonin release in the cortex; conditions: after systemic administration; cited from earlier work

Structure (SMILES)	Ki (5-HT1A receptors)	Ki (5-HT1B receptors)	melting point	serotonin release in the cortex [1]
CN1CCc2c(sc3ncn(CCN4CCN(c5nsc6ccccc56)CC4)c(=O)c23)C1 [Example 4, 3-{2-[4-(1,2-Benzisothiazol-3-yl)piperazin-1-yl]ethyl}-7-methyl-5,6,7,8-tetrahydropyrido[4′,3′:4,5]thieno[2,3-d]pyrimidin-4(3H)-one]	1.4 nM	0.9 nM	82 to 84 °C	
CN1CCc2c(sc3ncn(CCN4CCN(c5nsc6cccc(Cl)c56)CC4)c(=O)c23)C1 [Example 5, 3-{2-[4-(4-Chloro-1,2-benzisothiazol-3-yl)piperazin-1-yl]ethyl}-7-methyl-5,6,7,8-tetrahydropyrido[4′,3′:4,5]thieno[2,3-d]pyrimidin-4(3H)-one]			88 to 89 °C	
CN1CCc2c(sc3ncn(CCN4CCN(c5nc6cc(C(F)(F)F)ccc6s5)CC4)c(=O)c23)C1 [Example 6, 7-Methyl-3-(2-{4-[5-(trifluoromethyl)-1,3-benzothiazol-2-yl]piperazin-1-yl}ethyl)-5,6,7,8-tetrahydropyrido[4′,3′:4,5]thieno[2,3-d]pyrimidin-4(3H)-one]			166 to 167 °C	
CN1CCc2c(sc3ncn(CCN4CCN(c5nc6ccc(Cl)cc6s5)CC4)c(=O)c23)C1 [Example 7, 3-{2-[4-(6-Chloro-1,3-benzothiazol-2-yl)piperazin-1-yl]ethyl}-7-methyl-5,6,7,8-tetrahydropyrido[4′,3′:4,5]thieno[2,3-]pyrimidin-4(3H)-one]			160 to 162 °C	
CN1CCc2c(sc3ncn(CCN4CCN(c5nc6ccccc6[nH]5)CC4)c(=O)c23)C1 [Example 8, 3-{2-[4-(1H-Benzimidazol-2-yl)piperazin-1-yl]ethyl}-7-methyl-5,6,7,8-tetrahydropyrido[4′,3′:4,5]thieno[2,3-d]pyrimidin-4(3H)-one]			227 to 229 °C	
Cc1ccc2onc(N3CCN(CCn4cnc5sc6c(c5c4=O)CCN(C)C6)CC3)c2c1 [Example 9, 7-Methyl-3-{2-[4-(5-methyl-1,2-benzisoxazol-3-yl)piperazin-1-ium-1-yl]ethyl}-4-oxo-3,4,5,6,7,8-hexahydropyrido[4′,3′:4,5]thieno[2,3-d]spyrimidin-7-ium dichloride]	6.2 nM	4.5 nM		
CN1CCc2c(sc3ncn(CCN4CCN(c5nc6ccccc6o5)CC4)c(=O)c23)C1 [Example 10, 3-{2-[4-(1,3-Benzoxazol-2-yl)piperazin-1-yl]ethyl}-7-methyl-5,6,7,8-tetrahydropyrido[4′,3′:4,5]thieno[2,3-d]pyrimidin-4(3H)-one]			130 to 132 °C	
CN1CCc2c(sc3ncn(CCN4CCN(c5nc6ccccc6s5)CC4)c(=O)c23)C1 [Example 11, 3-{2-[4-(1,3-Benzothiazol-2-yl)piperazin-1-yl]ethyl}-7-methyl-5,6,7,8-tetrahydropyrido[4′,3′:4,5]thieno[2,3-d]pyrimidin-4(3H)-one]			151 to 153 °C	
CN1CCc2c(sc3ncn(CCN4CCN(c5n[nH]c6ccccc56)CC4)c(=O)c23)C1 [Example 13, 3-{2-[4-(1H-Indazol-3-yl)piperazin-1-yl]ethyl}-7-methyl-5,6,7,8-tetrahydropyrido[4′,3′:4,5]thieno[2,3-d]pyrimidin-4(3H)-one]	11.5 nM	3.5 nM		
COc1ccc2onc(N3CCN(CCn4cnc5sc6c(c5c4=O)CCN(C)C6)CC3)c2c1 [Example 15, 4-(5-Methoxy-1,2-benzisoxazol-3-yl)-1-[2-(7-methyl-4-oxo-5,6,7,8-tetrahydropyrido[4′,3′:4,5]thieno[2,3-d]pyrimidin-3(4H)-yl)ethyl]piperazin-1-ium chloride]	13.7 nM	7.9 nM		
COc1ccc2c(c1)c(C1CCN(CCn3cnc4sc5c(c4c3=O)CCN(C)C5)CC1)cn2C [Example 16, 4-(5-Methoxy-1-methyl-1H-indol-3-yl)-1-[2-(7-methyl-4-oxo-5,6,7,8-tetrahydropyrido[4′,3′:4,5]thieno[2,3-d]pyrimidin-3(4H)-yl)ethyl]piperidinium chloride]	1.3 nM	2.3 nM		
CN1CCc2c(sc3ncn(CCN4CC=C(c5c[nH]c6ccccc56)CC4)c(=O)c23)C1 [Example 20, 3-{2-[4-(1H-Indol-3-yl)-3,6-dihydropyridin-1(2H)-yl]ethyl}-7-methyl-5,6,7,8-tetrahydropyrido[4′,3′:4,5]thieno[2,3-d]pyrimidin-4(3H)-one]	1.2 nM	1 nM		
CN1CCc2c(sc3ncn(CCN4CC=C(c5c[nH]c6ncccc56)CC4)c(=O)c23)C1 [Example 21, 1-[2-(7-Methyl-4-oxo-5,6,7,8-tetrahydropyrido[4′,3′:4,5]thieno[2,3-d]pyrimidin-3(4H)-yl)ethyl]-4-(1H-pyrrolo[2,3-b]pyridin-3-yl)-1,2,3,6-tetrahydropyridinium acetate]	14.6 nM	1 nM		
CN1CCc2c(sc3ncn(CCN4CCC(c5cc(-c6cccs6)[nH]n5)CC4)c(=O)c23)C1 [Example 24, 1-[2-(7-Methyl-4-oxo-5,6,7,8-tetrahydropyrido[4′,3′:4,5]thieno[2,3-d]pyrimidin-3(4H)-yl)ethyl]-4-[5-(2-thienyl)-1 H-pyrazol-3-yl]piperidinium chloride]	98.3 nM	286 nM		
CN1CCc2c(sc3ncn(CCN4CC=C(c5csc6ccccc56)CC4)c(=O)c23)C1 [Example 28, 3-{2-[4-(1-Benzothien-3-yl)-3,6-dihydropyridin-1 (2H)-yl]ethyl}-7-methyl-5,6,7,8-tetrahydropyrido[4′,3′:4,5]thieno[2,3-d]pyrimidin-4(3H)-one]	1.3 nM	2 nM		
CN1CCc2c(sc3ncn(CCN4CCN(c5snc6ccccc56)CC4)c(=O)c23)C1 [Example 31, 4-(2,1-Benzisothiazol-3-yl)-1-[2-(7-methyl-4-oxo-5,6,7,8-tetrahydropyrido[4′,3′:4,5]thieno[2,3-d]pyrimidin-3(4H)-yl)ethyl]piperazin-1-ium chloride]	42.7 nM	24.3 nM		
COc1ccc2[nH]cc(C3=CCN(CCn4cnc5sc6c(c5c4=O)CCN(C)C6)CC3)c2c1 [Example 32, 3-{2-[4-(5-methoxy-1H-indol-3-yl)-3,6-dihydropyridin-1(2H)-yl]ethyl}-7-methyl-5,6,7,8,-tetrahydropyrido[4′,3′:4,5]thieno[2,3-d]pyrimidin-4(3H)-one]	0.5 nM	0.6 nM		
COc1ccc(NC(=O)c2ccc(-c3ccc(-c4noc(C)n4)cc3C)cc2)cc1N1CCN(C)CC1 [GR 127 935]				reduced
